No end group written: not given here.
Assays:
[1] = system: HIV-1IIIB; experiment: HIV-1 antiviral assay in CEM-SS cells; format: cell-based
[2] = system: HCMV strain AD169; experiment: HCMV plaque formation assay; conditions: MRC-5 cells; for inhibition of HCMV plaque formation as compared to the virus control: 10 micrograms per ml, 7-10 days
[3] = system: hepatitis B virus (HBV) ayw strain; experiment: HBV experimental assay system (secreted HBV DNA, TaqMan PCR); format: cell-based; conditions: 10 micrograms per ml; HepG2-2.2.15; six days; HBV DNA in supernatant
[4] = system: murine spleen cells; experiment: Th1/Th2 cytokine profiling assay; conditions: 10 micrograms per ml; Ovalbumin restimulation; 72 hours
Description: The Balb/c mice (originated in 1923, it is a popular strain and is used in many different research disciplines. Also classified as an inbred from the production of 20 or more successive brother-sister matings, the Balb/c mouse is albino and small in size) were immunized on Days 1, 15, and 29 with Ovalbumin (Ovalbumin is the main protein found in egg white, commonly used to stimulate an immunological reaction in test animals) in PBS (5 micrograms/injection). On day 50, spleens of the mice were harvested (3 weeks after last boost with Ovalbumin). […] Thereafter, additional Ovalbumin was added to the cells at 10 micrograms/ml for in vitro restimulation of the cells. 72 hours later, cell supernatants were harvested and assayed using the Becton Dickinson Mouse Th1/Th2 Cytokine CBA Kit. This kit can be used to measure Interleukin-2 (IL-2), Interleukin-4 (IL-4), Interleukin-5 (IL-5), Interferon-γ (IFN-γ), and Tumor Necrosis Factor-α (TNF-α) protein levels in a single sample.

[5] = system: HUVEC; experiment: Endothelial tube formation assay; conditions: 10 micrograms per ml; 20 hours
Protocol: The endothelial tube formation assay is based on the ability of endothelial cells to form three-dimensional capillary-like tubular structures when cultured on a gel of basement membrane extract. […] Pre-labeled HUVEC with Calcein AM were seeded in a 96-well culture plate coated with extracellular metrix (Chemicon international Cat. ECM625) and treated with test peptides—10 micrograms per ml—in full growth medium. Positive control was vehicle only. The endothelial cells were allowed to form tubes for 20 hours and were then examined under an inverted fluorescent microscope. Duplicate wells for each treatment were photographed and quantitatively analyzed for an average tubule length using image analysis software ImageProPlus. Raw data were expressed as average tubule lengths in pixels ±standard deviation. Statistic p values were computed using the Student's t-test.

[6] = system: Streptococcus pneumoniae; experiment: Streptococcus pneumoniae assay; conditions: 10 micrograms per ml; 5×10^5 CFU/mL
[7] = system: Primary Human endothelial cells (HUVEC); experiment: Endothelial cell migration assay; format: cell-based; conditions: 10 micrograms per ml; 22 hours
Protocol: Primary Human endothelial cells (HUVEC) were seeded in insert chambers with 3 micrometer pore size of multi-transwell plate for 6 hours at 37° C. in Endothelial Cell Basal Medium (EBM) supplemented with 0.1% bovine serum albumin. Thereafter, designated concentration of test peptides—10 micrograms per ml—was added in duplicate wells. The endothelia were allowed to migrate for 22 hours at 37° C., then, migrated cells were fixed and stained with Hoechst 33342 dye. Images of 3 fields per insert were taken and the number of migrated cells per field were quantified using the ImageProPlus software. Data were analyzed for the average number of the migrated cells and standard deviation of six data points for each treatment condition. […] Statistic p values were computed using the Student's t-test.

Molecule: Cc1cn([C@H]2C[C@H](N=[N+]=[N-])[C@@H](CO)O2)c(=O)[nH]c1=O [AZT]
- antiviral activity of positive control compounds [1]: expected levels of antiviral activity

Molecule: Nc1nc(O)c2ncn(COC(CO)CO)c2n1 [Ganciclovir, reference compound]
- antiviral activity of positive control compound ([2]; positive control, HCMV): expected levels of antiviral activity

Molecule: CC(C)(C)NC(=O)[C@@H]1CN(Cc2cccnc2)CCN1C[C@@H](O)C[C@@H](Cc1ccccc1)C(=O)N[C@H]1c2ccccc2C[C@H]1O [indinavir]
- antiviral activity of positive control compounds [1]: expected levels of antiviral activity

Molecule: Gly-Arg-Gly-Asp-Asn-Pro-OH (GRGDNP-OH) [Peptide 2]
- inhibition of HBV replication as compared to the virus control infection [3]: 36.4%
- inhibition of HCMV plaque formation as compared to the virus control [2]: did not inhibit
- change of the production of IFN-γ [4]: did not significantly change
- change of the production of IL-5 [4]: did not significantly change
- induction of the production of IL-2 [4]: 58.8%
- induction of the production of IL-4 [4]: 55.6%
- induction of the production of TNF-alpha [4]: 23.7%
- increase of the tube formation of endothelial cells [5]: 6%
- inhibition of the growth of Streptococcus pneumoniae [6]: 100%

Molecule: His-Ser-Leu-Gly-Lys-Trp-Leu-Gly-His-Pro-Asp-Lys-Phe (HSLGKWLGHPDKF; printed: His-Ser-Leu-Gly-Lys-Trp-Leu-Gly-His-Pro-Asp-Lys-Phe) [Peptide 1]
- inhibition of HCMV plaque formation as compared to the virus control [2]: did not inhibit
- change of the production of IFN-γ [4]: did not significantly change
- change of the production of IL-5 [4]: did not significantly change
- induction of the production of IL-2 [4]: 106.5%
- induction of the production of IL-4 [4]: 117.8%
- induction of the production of TNF-alpha [4]: 21.2%
- inhibition of the migration of human endothelial cells [7]: 12%
- inhibition of the tube formation of human endothelial cells [5]: 10%
- inhibition of the growth of Streptococcus pneumoniae [6]: 100%
